According to article PMC8231113, “Protein Secondary Structure Affects Glycan Clustering in Native Mass Spectrometry” (Life, 2021):

Experiments:
[1] = biological target: GII.4 Saga P dimer (Norovirus GII.4 (human norovirus), UniProt B5BTR7); assay: Native MS, specific glycan binding to P dimer after reference protein correction; design: species or system human norovirus (hNoV)
Method: (§1) Prior to MS analysis, purified P dimers were buffer exchanged to 150 mM ammonium acetate (Sigma-Aldrich, reagent grade ≥98%) at pH 7 via centrifugal filter units at 12,000× g at 4 °C (Vivaspin 500, MWCO 10000, Sartorius). Glycans for native MS analysis were mixed with 1 µM (per monomer) purified GII.4 Saga P dimer and 3 µM of the reference proteins at indicated concentrations. Native mass spectra were measured at room temperature in positive ion mode on a high mass modified LCT Premier mass spectrometer (Waters/Micromass, UK and MS Vision, the Netherlands) with a nano-ESI source. In house-made gold-coated electrospray capillaries were used for direct-sample infusion without any accessory chromatographic separation. The voltages and pressures were optimized for non-covalent protein complexes. The gas pressure used in the source hexapole was set between 6.5 and 6.8 × 10^−2 mbar argon optimized for minimal complex dissociation and the backing pressure of the source roughing pump was set between 7.0 and 8.5 mbar. Spectra were recorded with applied voltages for the capillary and cone of 1.20 kV and 240 V, respectively. Note that charge state distributions for P dimers were sometimes slightly shifted as was the degree of glycan clustering per charge state. These changes were highly variable and not quantifiable.
(§2) For calibration of the raw data, a 25 mg/mL cesium iodide spectrum from the same day was used. MassLynx V4.1 (Waters, Manchester, UK) was used to assign peak series to protein species and to determine the mass after minimal smoothing. Furthermore, OriginPro 2016 SR2 (OriginLab, Northampton, MA, USA) was used for spectral deconvolution and curve fitting. Correction for nonspecific protein-ligand clustering was performed as described. Corrected peak areas were averaged and normalized to the free-protein signal. Data were based on at least three independent measurements. Python code Panda and Numpy package were used to calculate the specific binding of P dimers according to the glycan clustering ratio obtained from the selected reference protein candidates. Seaborn and matplotlib.pyplot package were imported into a python script to plot the results. The module of sklearn.linear model was applied for linear regression. The matplotlib and heatmap package were used to plot the heatmap.
Data from native ESI MS measurements were translated into dissociation constants (KD values). The detailed calculations were based on the equations listed below. A protein (P) and a glycan ligand (L) form a complex through non-covalent interactions leading to a reversible association described by (Equation (1)):(1) P+L⇌PL when equilibrium is reached, the KD can be calculated directly from the concentrations via the law of mass action (Equation (2)):(2) KD=[Pfree][Lfree]/[PL]
(§3) Theoretically, the KD is calculated by measuring the concentration of the three components (Pfree, Lfree, PL) in solution. Usually, these values are only indirectly accessible because they require ligand titration up to binding saturation. However, native MS allows for the directly measurement of Pfree and PL, from which Lfree can be calculated using the input concentrations. In the present work, the non-covalent interaction was measured in the gas phase assuming identical ESI and detection efficiency for free and glycan-associated proteins, both for the analyte and the reference protein. […] For P dimers, the equations reflect glycan binding to the individual monomers assuming that binding sites on each monomer are equal and independent.
Using R described in Equation (3), the KD calculation can be re-written into Equation (4) with the known initial concentration of glycan ligand [L0] and protein [P0], adapted from Sun et al.:(3) R=PLequil∕Pequil=∑nA(PL^n+)∕n∕∑nA(P^n+)∕n (4) KD =L0−RP0/1+R/R […]

[2] = biological target: T1, carbonic anhydrase isozyme II from bovine erythrocytes (CA) (Bos taurus, UniProt P00921); assay: Native MS glycan clustering to reference protein CA; format: binding; conditions: on CA
T1 construct: carbonic anhydrase isozyme II from bovine erythrocytes (CA, CAS number 9001-03-0); purchased Sigma-Aldrich (Merck, Germany); host or cells: bovine erythrocytes
T1 sequence (P00921 whole entry): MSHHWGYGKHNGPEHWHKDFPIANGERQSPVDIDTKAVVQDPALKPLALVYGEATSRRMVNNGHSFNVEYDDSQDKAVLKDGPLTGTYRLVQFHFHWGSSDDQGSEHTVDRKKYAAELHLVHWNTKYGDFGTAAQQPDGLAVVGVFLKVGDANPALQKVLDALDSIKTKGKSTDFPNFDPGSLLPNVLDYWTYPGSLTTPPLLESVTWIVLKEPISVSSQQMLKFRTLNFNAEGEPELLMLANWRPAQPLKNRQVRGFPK
Method: as §1, §2, §3
(§4) Using R described in Equation (3), the KD calculation can be re-written into Equation (4) with the known initial concentration of glycan ligand [L0] and protein [P0], adapted from Sun et al.:(3) R=PLequil∕Pequil=∑nA(PL^n+)∕n∕∑nA(P^n+)∕n (4) KD =L0−RP0/1+R/R
(§5) For the carbohydrate-binding experiments, it was essential to keep the initial protein concentrations and pH value constant during the analysis of the protein-carbohydrate solutions. While acidification occurs in any ESI droplet, the remaining solution in the capillary changes pH over time. Therefore, accumulated spectra were obtained within 10 min after the voltages were applied to minimize the influence of pH changes during the measurements. […]

[3] = biological target: T2, L-lactic dehydrogenase from rabbit muscle (LDH) (Oryctolagus cuniculus, UniProt P13491); assay: Native MS glycan clustering to reference protein LDH; format: binding; conditions: on LDH
T2 construct: L-lactic dehydrogenase from rabbit muscle (LDH, CAS number 9001-60-9); purchased Sigma-Aldrich (Merck, Germany); host or cells: rabbit muscle
Method: as §1, §2, §3, §4, §5

[4] = biological target: T3, ubiquitin from bovine erythrocytes (Ubq) (Bos taurus, UniProt P0CG53); assay: Native MS glycan clustering to reference protein Ubq; format: binding; conditions: on Ubq
T3 construct: ubiquitin from bovine erythrocytes (Ubq, CAS number 75986-22-4); purchased Sigma-Aldrich (Merck, Germany); host or cells: bovine erythrocytes
Method: as §1, §2, §3, §4, §5

CC(=O)N[C@H]1[C@H](O[C@H]2[C@@H](O)[C@@H](CO)O[C@H](O[C@@H]3[C@H](O)[C@@H](O)[C@H](O[C@H]4[C@H](O)[C@@H](O)C(O)O[C@@H]4CO)O[C@@H]3CO)[C@@H]2O)O[C@H](CO)[C@H](O)[C@@H]1O (stereo partly drawn) [Gb4, GalNAc β1-3 Galα1-4Galβ1-4Glc]
specific binding after ADH based protein clustering correction ([1]; Gb4: any listed glycan concentration, HBGA B: 500 µM): no specific binding
Bound number of carbohydrates on Saga P dimer ([1]; ref. protein ADH, glycan 100 µM): 0
Bound number of carbohydrates on Saga P dimer ([1]; ref. protein ADH, glycan 200 µM): 0
Bound number of carbohydrates on Saga P dimer ([1]; ref. protein ADH, glycan 300 µM): 0
Bound number of carbohydrates on Saga P dimer ([1]; ref. protein ADH, glycan 400 µM): 0
Bound number of carbohydrates on Saga P dimer ([1]; ref. protein ADH, glycan 500 µM): 0
Bound number of carbohydrates on Saga P dimer ([1]; ref. protein CA, glycan 100 µM): 1
Bound number of carbohydrates on Saga P dimer ([1]; ref. protein CA, glycan 200 µM): 1
Bound number of carbohydrates on Saga P dimer ([1]; ref. protein CA, glycan 300 µM): 2
Bound number of carbohydrates on Saga P dimer ([1]; ref. protein CA, glycan 400 µM): 2
Bound number of carbohydrates on Saga P dimer ([1]; ref. protein CA, glycan 500 µM): 2
Bound number of carbohydrates on Saga P dimer ([1]; ref. protein Cyto c, glycan 100 µM): 1
Bound number of carbohydrates on Saga P dimer ([1]; ref. protein Cyto c, glycan 200 µM): 2
Bound number of carbohydrates on Saga P dimer ([1]; ref. protein Cyto c, glycan 300 µM): 3
Bound number of carbohydrates on Saga P dimer ([1]; ref. protein Cyto c, glycan 400 µM): 3
Bound number of carbohydrates on Saga P dimer ([1]; ref. protein Cyto c, glycan 500 µM): 4
Bound number of carbohydrates on Saga P dimer ([1]; ref. protein GFP, glycan 100 µM): 2
Bound number of carbohydrates on Saga P dimer ([1]; ref. protein GFP, glycan 200 µM): 2
Bound number of carbohydrates on Saga P dimer ([1]; ref. protein GFP, glycan 300 µM): 2
Bound number of carbohydrates on Saga P dimer ([1]; ref. protein GFP, glycan 400 µM): 2
Bound number of carbohydrates on Saga P dimer ([1]; ref. protein GFP, glycan 500 µM): 2
Bound number of carbohydrates on Saga P dimer ([1]; ref. protein LDH, glycan 100 µM): 0
Bound number of carbohydrates on Saga P dimer ([1]; ref. protein LDH, glycan 200 µM): 0
Bound number of carbohydrates on Saga P dimer ([1]; ref. protein LDH, glycan 300 µM): 0
Bound number of carbohydrates on Saga P dimer ([1]; ref. protein LDH, glycan 400 µM): 0
Bound number of carbohydrates on Saga P dimer ([1]; ref. protein LDH, glycan 500 µM): 1
Bound number of carbohydrates on Saga P dimer ([1]; ref. protein Myo, glycan 100 µM): 2
Bound number of carbohydrates on Saga P dimer ([1]; ref. protein Myo, glycan 200 µM): 3
Bound number of carbohydrates on Saga P dimer ([1]; ref. protein Myo, glycan 300 µM): 3
Bound number of carbohydrates on Saga P dimer ([1]; ref. protein Myo, glycan 400 µM): 3
Bound number of carbohydrates on Saga P dimer ([1]; ref. protein Myo, glycan 500 µM): 4
Bound number of carbohydrates on Saga P dimer ([1]; ref. protein Ubq, glycan 100 µM): 2
Bound number of carbohydrates on Saga P dimer ([1]; ref. protein Ubq, glycan 200 µM): 3
Bound number of carbohydrates on Saga P dimer ([1]; ref. protein Ubq, glycan 300 µM): 4
Bound number of carbohydrates on Saga P dimer ([1]; ref. protein Ubq, glycan 400 µM): 4
Bound number of carbohydrates on Saga P dimer ([1]; ref. protein Ubq, glycan 500 µM): 4
Bound number of carbohydrates on Saga P dimer ([1]; ref. protein apo-TFF, glycan 100 µM): 0
Bound number of carbohydrates on Saga P dimer ([1]; ref. protein apo-TFF, glycan 200 µM): 0
Bound number of carbohydrates on Saga P dimer ([1]; ref. protein apo-TFF, glycan 300 µM): 1
Bound number of carbohydrates on Saga P dimer ([1]; ref. protein apo-TFF, glycan 400 µM): 1
Bound number of carbohydrates on Saga P dimer ([1]; ref. protein apo-TFF, glycan 500 µM): 1
Glycan-Clustering Ratio R ([2]; 100 µM glycan): 0.21±0.01
Glycan-Clustering Ratio R ([2]; 200 µM glycan): 0.32±0.07
Glycan-Clustering Ratio R ([2]; 300 µM glycan): 0.50±0.00
Glycan-Clustering Ratio R ([2]; 400 µM glycan): 0.60±0.05
Glycan-Clustering Ratio R ([2]; 500 µM glycan): 0.75 ± 0.03
Glycan-Clustering Ratio R ([3]; 100 µM glycan): 0.35±0.04
Glycan-Clustering Ratio R ([3]; 200 µM glycan): 0.51±0.08
Glycan-Clustering Ratio R ([3]; 300 µM glycan): 0.68±0.02
Glycan-Clustering Ratio R ([3]; 400 µM glycan): 0.80±0.01
Glycan-Clustering Ratio R ([3]; 500 µM glycan): 0.91±0.06
Glycan-Clustering Ratio R ([4]; 100 µM glycan): 0.03±0.01
Glycan-Clustering Ratio R ([4]; 200 µM glycan): 0.04±0.01
Glycan-Clustering Ratio R ([4]; 300 µM glycan): 0.12±0.02
Glycan-Clustering Ratio R ([4]; 400 µM glycan): 0.21±0.20
Glycan-Clustering Ratio R ([4]; 500 µM glycan): 0.09 ± 0.03
